25 compounds from PubChem BioAssay AID328 (DTP/NCI, 2004) can be followed below.

This experiment has as its system BDF1 mice, P388 leukemia ip, median survival T/C. Kind of experiment: NCI In Vivo Anticancer Drug Screen. Data for tumor model P388 Leukemia (intraperitoneal) in B6D2F1 (BDF1) mice. The following applies: endpoint: median survival time, higher = longer survival. Summed up:
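Vehicle-dosed animals serve as the reference; survival of compound-dosed, tumour-implanted mice is divided by it.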

Where [1] appears, read: dose: 50.0 mg/kg/injection, schedule: Q01DX005 (ip), vehicle: saline with Tween-80.
The mark [2] stands for this setting: dose: 100.0 mg/kg/injection, schedule: Q01DX005 (ip), vehicle: saline with Tween-80.
Where [3] appears, read: dose: 100.0 mg/kg/injection, schedule: Q04DX003 (ip), vehicle: saline with Tween-80.
[4] abbreviates: dose: 200.0 mg/kg/injection, schedule: Q04DX003 (ip), vehicle: saline with Tween-80.
[5] abbreviates: dose: 400.0 mg/kg/injection, schedule: Q04DX003 (ip), vehicle: saline with Tween-80.
Setting [6] is: dose: 50.0 mg/kg/injection, schedule: Q01DX009 (ip), vehicle: saline with Tween-80.
Where [7] appears, read: dose: 200.0 mg/kg/injection, schedule: Q01DX009 (ip), vehicle: saline with Tween-80.
Setting [8] is: dose: 50.0 mg/kg/injection, schedule: Q04DX003 (ip), vehicle: saline with Tween-80.
Setting [9] is: dose: 25.0 mg/kg/injection, schedule: Q01DX009 (ip), vehicle: saline.
[10] abbreviates: dose: 100.0 mg/kg/injection, schedule: Q01DX001 (ip), vehicle: Klucel (hydroxypropylcellulose) (HPC).
Where [11] appears, read: dose: 100.0 mg/kg/injection, schedule: Q04DX003 (ip), vehicle: saline.
The mark [12] stands for this setting: dose: 200.0 mg/kg/injection, schedule: Q01DX001 (ip), vehicle: Klucel (hydroxypropylcellulose) (HPC).
The mark [13] stands for this setting: dose: 400.0 mg/kg/injection, schedule: Q01DX001 (ip), vehicle: Klucel (hydroxypropylcellulose) (HPC).
Where [14] appears, read: dose: 100.0 mg/kg/injection, schedule: Q01DX009 (ip), vehicle: saline with Tween-80.

Structures are written as SMILES. Values joined by “and” are separate entries in the source; they are usually repeats but may differ in a detail not shown here. Identical values can stand only once. Toxic doses and inconclusive results are not listed.

Turning to `O=C(/C=N/O)c1ccccc1`, the T/C is, setting by setting: (dose: 50.0 mg/kg/injection, schedule: Q04DX003 (ip), vehicle: gum acacia) 100 % of control; (dose: 100.0 mg/kg/injection, schedule: Q04DX003 (ip), vehicle: gum acacia) 96 % of control; (dose: 200.0 mg/kg/injection, schedule: Q04DX003 (ip), vehicle: gum acacia) 96 % of control.
Turning to `O=C(O)C1CCC=CCC1`, the T/C runs as follows: (dose: 50.0 mg/kg/injection, schedule: Q04DX003 (ip), vehicle: other) 100 % of control; (dose: 100.0 mg/kg/injection, schedule: Q04DX003 (ip), vehicle: other) 100 % of control; (dose: 200.0 mg/kg/injection, schedule: Q04DX003 (ip), vehicle: other) 109 % of control.
Consider `C[S+](C)N(c1ccc(Cl)cc1)C(C)(C)C`, for which the T/C was 104 % of control (dose: 25.0 mg/kg/injection, schedule: Q01DX001 (ip), vehicle: saline) and 111 % of control (dose: 50.0 mg/kg/injection, schedule: Q01DX001 (ip), vehicle: saline).
As to `COc1cc(-c2ccc(NC(=O)NC3CC3)c(OC)c2)ccc1NC(=O)NC1CC1`, the T/C by setting is: under setting [1], 89 % of control; under setting [2], 91 % of control.
Turning to `CCOC(=O)/C(C#N)=C/N=c1ccccn1C`, the T/C was 101 % of control (dose: 6.25 mg/kg/injection, schedule: Q04DX002 (ip), vehicle: saline with Tween-80); 101 % of control (dose: 12.5 mg/kg/injection, schedule: Q04DX002 (ip), vehicle: saline with Tween-80); 101 % of control (dose: 25.0 mg/kg/injection, schedule: Q04DX002 (ip), vehicle: saline with Tween-80).
As to `CCCCNC(=O)Nc1ccccc1Cl`, the T/C was 100 % of control under setting [3], 100 % of control under setting [4] and 95 % of control under setting [5].
Take `CCOC(=O)C1=C(C)NC(C)=C(C(=O)OCC)C1c1ccccc1`: the T/C was 95 % of control under setting [6] and 95 % of control under setting [7].
Consider `CCCCCCCCCCCC[N+](C)(C)CC(O)C[N+](C)(C)CCCCCCCCCCCC`, for which the T/C is 102 % of control (dose: 3.13 mg/kg/injection, schedule: Q01DX009 (ip), vehicle: saline) and 107 % of control (dose: 6.25 mg/kg/injection, schedule: Q01DX009 (ip), vehicle: saline).
With `Cc1sc(N)c(C#N)c1C`, the T/C is, setting by setting: under setting [8], 100 % of control; under setting [3], 120 % of control; under setting [4], 100 % of control.
For `N=C(N)c1ccc(/C=C/c2ccc(C(=N)N)cc2)cc1`, the T/C by setting is: (dose: 12.5 mg/kg/injection, schedule: Q01DX009 (ip), vehicle: Klucel (hydroxypropylcellulose) (HPC)) 118 % of control; (dose: 16.5 mg/kg/injection, schedule: Q01DX009 (ip), vehicle: Klucel (hydroxypropylcellulose) (HPC)) 116 % of control and 118 % of control; (dose: 37.5 mg/kg/injection, schedule: Q01DX009 (ip), vehicle: Klucel (hydroxypropylcellulose) (HPC)) 150 % of control.
Consider `OC(CNc1ccc(Cl)cc1)COc1ccc(Cl)cc1Cl` (configuration not stated), for which the T/C was 100 % of control (dose: 50.0 mg/kg/injection, schedule: Q01DX009 (ip), vehicle: Klucel (hydroxypropylcellulose) (HPC)); 101 % of control (dose: 100.0 mg/kg/injection, schedule: Q01DX009 (ip), vehicle: Klucel (hydroxypropylcellulose) (HPC)); 102 % of control (dose: 200.0 mg/kg/injection, schedule: Q01DX009 (ip), vehicle: Klucel (hydroxypropylcellulose) (HPC)).
Consider `CC#CC#C/C=C1\OC2(CCCCO2)C(O)C1OC(=O)CC(C)C` (configuration not stated), for which the T/C by setting is: (dose: 10.0 mg/kg/injection, schedule: Q01DX009 (ip), vehicle: Klucel (hydroxypropylcellulose) (HPC)) 100 % of control; (dose: 20.0 mg/kg/injection, schedule: Q01DX009 (ip), vehicle: Klucel (hydroxypropylcellulose) (HPC)) 102 % of control; (dose: 40.0 mg/kg/injection, schedule: Q01DX009 (ip), vehicle: Klucel (hydroxypropylcellulose) (HPC)) 111 % of control.
For `Cn1cncc1CC(Cl)CO` (configuration not stated), the T/C is 100 % of control under setting [9]; 99 % of control (dose: 50.0 mg/kg/injection, schedule: Q01DX009 (ip), vehicle: saline); 103 % of control (dose: 100.0 mg/kg/injection, schedule: Q01DX009 (ip), vehicle: saline).
Regarding `CCOC(=O)/C(=C\c1ccc2c(c1)OCO2)NC(=O)c1ccccc1`, the T/C is 104 % of control under setting [10]; 112 % of control under setting [11]; 100 % of control under setting [12]; 95 % of control (dose: 200.0 mg/kg/injection, schedule: Q04DX003 (ip), vehicle: saline); 100 % of control under setting [13]; 95 % of control (dose: 400.0 mg/kg/injection, schedule: Q04DX003 (ip), vehicle: saline).
For `CCCCCC(Br)C(Br)CC(Br)C(Br)CCCCCCCC(=O)O` (configuration not stated), the T/C under setting [10] was 100 % of control, the T/C under setting [12] is 109 % of control and the T/C under setting [13] is 104 % of control.
Consider `NC(N)=Nc1ccc(C(=O)O)cc1`, for which the T/C is 104 % of control under setting [8], 100 % of control under setting [3] and 100 % of control under setting [4].
With `Cc1cc(N/N=C/c2ccc(N(CCCl)CCCl)cc2)c2cc3c(cc2n1)OCO3`, the T/C was 114 % of control (dose: 12.5 mg/kg/injection, schedule: Q04DX003 (ip), vehicle: saline with Tween-80); 105 % of control (dose: 25.0 mg/kg/injection, schedule: Q04DX003 (ip), vehicle: saline with Tween-80); 115 % of control under setting [8].
Regarding `O=S1(=O)CCCCO1`, the T/C reads like this: (dose: 11.0 mg/kg/injection, schedule: Q01DX009 (ip), vehicle: saline) 90 % of control; (dose: 16.5 mg/kg/injection, schedule: Q01DX009 (ip), vehicle: saline) 100 % of control; under setting [9], 109 % of control; (dose: 25.0 mg/kg/injection, schedule: Q04DX003 (ip), vehicle: saline) 95 % of control; (dose: 37.5 mg/kg/injection, schedule: Q01DX009 (ip), vehicle: saline) 100 % of control; (dose: 50.0 mg/kg/injection, schedule: Q04DX003 (ip), vehicle: saline) 100 % of control. Moreover, under setting [11], the T/C was 104 % of control.
Regarding `C=C(C)C(=O)NCCC(=O)Oc1ccc([N+](=O)[O-])cc1`, the T/C under setting [6] was 95 % of control, the T/C under setting [14] was 87 % of control and the T/C under setting [7] is 86 % of control.
As to `Cc1cccc2c1CC(C(C)C)C2` (configuration not stated), the T/C by setting is: under setting [14], 123 % of control; under setting [7], 103 % of control.
As for `Cn1c2ccccc2c(=S)c2c(O)cc3c(c21)C=CC(C)(C)O3`, the T/C is, setting by setting: under setting [1], 89 % of control; under setting [2], 90 % of control; (dose: 200.0 mg/kg/injection, schedule: Q01DX005 (ip), vehicle: saline with Tween-80) 89 % of control.
`O=C(COc1cccc(Cl)c1Cl)Nc1cccnc1`: the T/C runs as follows: (dose: 37.5 mg/kg/injection, schedule: Q01DX001 (ip), vehicle: saline with Tween-80) 100 % of control; (dose: 75.0 mg/kg/injection, schedule: Q01DX001 (ip), vehicle: saline with Tween-80) 104 % of control; (dose: 150.0 mg/kg/injection, schedule: Q01DX001 (ip), vehicle: saline with Tween-80) 100 % of control.
With `CC12CCC(O)CC1CCC1C2CCC2(C)C(C3=CC(=O)OC3)CCC12O` (configuration not stated), the T/C reads like this: (dose: 2.0 mg/kg/injection, schedule: Q01DX009 (ip), vehicle: Klucel (hydroxypropylcellulose) (HPC)) 90 % of control; (dose: 2.0 mg/kg/injection, schedule: Q01DX010 (ip), vehicle: carboxymethylcellulose (CMC)) 95 % of control; (dose: 4.0 mg/kg/injection, schedule: Q01DX009 (ip), vehicle: Klucel (hydroxypropylcellulose) (HPC)) 105 % of control; (dose: 8.0 mg/kg/injection, schedule: Q01DX009 (ip), vehicle: Klucel (hydroxypropylcellulose) (HPC)) 112 % of control; (dose: 8.0 mg/kg/injection, schedule: Q01DX010 (ip), vehicle: carboxymethylcellulose (CMC)) 104 % of control.
For `COC(=O)c1cc(C(C)=O)ccc1OC(=O)c1ccccc1`, the T/C under setting [14] is 118 % of control; the T/C under setting [3] is 100 % of control; the T/C under setting [7] is 104 % of control; the T/C under setting [4] is 100 % of control; the T/C (dose: 400.0 mg/kg/injection, schedule: Q01DX009 (ip), vehicle: saline with Tween-80) was 104 % of control; the T/C under setting [5] was 100 % of control.
With `O=C(O)c1ccccc1C(=O)Nc1ccccc1C(F)(F)F`, the T/C under setting [6] is 94 % of control, the T/C under setting [14] is 89 % of control and the T/C under setting [7] is 121 % of control.
